Measured values published in ChEMBL document CHEMBL4420073, “Small molecule inhibitors of MUC1 and methods of identifying the same” (2015).
Calls of active or inactive are those of the source. No cut-off for these calls is given here.

Tests used:
[1] = test system: ZR-75-1; assay: Effect on cellular MUC1-C levels in human ZR-75-1 cells at 5 uM using FITC-tagged peptide by Western blot analysis; format: functional, cell-based
[2] = test system: ZR-75-1; assay: Induction of cell cycle arrest in human ZR-75-1 cells assessed as accumulation at G2 phase at 5 uM incubated for 3 days by propidium iodide staining based flow cytometry (reference value: 7%); format: functional
[3] = Drug uptake in human ZR-75-1 cells assessed as mean fluorescence intensity at 5 uM using FITC-tagged peptide incubated for 24 hrs by flow cytometry (reference value: 24); format: ADME, cell-based; details: zr-75-1, 24 h
[4] = test system: ZR-75-1; assay: Growth inhibition in human ZR-75-1 cells assessed as reduction in cell number up to 96 hrs in presence of MUC1 siRNA; format: functional, cell-based
[5] = test system: MCF7; assay: Induction of cell cycle arrest in human MCF7 cells assessed as accumulation at G2 phase at 5 uM incubated for 3 days by propidium iodide staining based flow cytometry (reference value: 9%); format: functional
[6] = test system: MCF7; assay: Induction of necrosis in human MCF7 cells at 5 uM incubated for 4 days by propidium iodide staining based flow cytometry (reference value: 5%); format: functional
[7] = molecular target: Mucin-1 (Homo sapiens) (UniProt P15941); assay: Inhibition of MUC1-CD dimerization (unknown origin) expressed in HEK293 cells assessed as disruption of interaction between Flag-MUC1-CD and GFP-MUC1-CD at […] by coimmunoprecipitation assay; format: cell-based
[8] = test system: MCF7; assay: Induction of cell cycle arrest in human MCF7 cells assessed as accumulation at G1 phase at 5 uM incubated for 3 days by propidium iodide staining based flow cytometry (reference value: 70%); format: functional
[9] = molecular target: Mucin-1 (Homo sapiens) (UniProt P15941); assay: Inhibition of MUC1 nuclear import in human ZR-75-1 cells assessed as decrease in nuclear MUC1-C levels at 5 uM by Western blot analysis; format: cell-based
[10] = molecular target: Mucin-1 (Homo sapiens) (UniProt P15941); assay: Inhibition of His-tagged MUC1-CD dimerization (unknown origin) assessed as decrease in oligomer formation incubated for 1 hr by SDS-polyacrylamide electrophoresis method based luminescence assay
[11] = test system: ZR-75-1; assay: Antitumor activity against human ZR-75-1 xenografted in nu/nu mouse assessed as reduction in tumor growth at 50 mg/kg/day, ip for 7 days followed by treatment cessation and measured over next 17 days; format: functional, organism-based
[12] = test system: ZR-75-1; assay: Antitumor activity against human ZR-75-1 xenografted in nu/nu mouse assessed as induction of necrosis in tumor at 50 mg/kg/day, ip for 21 days; format: functional, organism-based
[13] = Toxicity in nu/nu mouse assessed as effect on body weight at 50 mg/kg, ip for 11 days measured over next 28 days after stopping drug administration; format: organism-based; details: in vivo, 672 h
[14] = test system: ZR-75-1; assay: Induction of cell cycle arrest in human ZR-75-1 cells assessed as accumulation at S phase at 5 uM incubated for 4 days by propidium iodide staining based flow cytometry (reference value: 29%); format: functional
[15] = molecular target: Mucin-1 (Homo sapiens) (UniProt P15941); assay: Inhibition of MUC1 nuclear import in human MCF7 cells assessed as decrease in nuclear MUC1-C levels at 5 uM by Western blot analysis; format: cell-based
[16] = test system: HEK293; assay: Growth inhibition of HEK293 cells assessed as reduction in cell number up to 96 hrs; format: cell-based; details: human, hek293, 96 h
[17] = Drug uptake in human ZR-75-1 cells assessed as mean fluorescence intensity at 5 uM using FITC-tagged peptide incubated for 2 hrs by flow cytometry (reference value: 24); format: ADME, cell-based; details: zr-75-1, 2 h
[18] = test system: MCF7; assay: Induction of necrosis in human MCF7 cells at 5 uM incubated for 3 days by propidium iodide staining based flow cytometry (reference value: 5%); format: functional
[19] = test system: MCF7; assay: Induction of cell cycle arrest in human MCF7 cells assessed as accumulation at S phase at 5 uM incubated for 3 days by propidium iodide staining based flow cytometry (reference value: 21%); format: functional
[20] = test system: ZR-75-1; assay: Induction of cell cycle arrest in human ZR-75-1 cells assessed as accumulation at G1 phase at 5 uM incubated for 4 days by propidium iodide staining based flow cytometry (reference value: 64%); format: functional
[21] = test system: ZR-75-1; assay: Induction of cell cycle arrest in human ZR-75-1 cells assessed as accumulation at G1 phase at 5 uM incubated for 3 days by propidium iodide staining based flow cytometry (reference value: 64%); format: functional
[22] = test system: ZR-75-1; assay: Induction of necrosis in human ZR-75-1 cells at 5 uM incubated for 3 days by propidium iodide staining based flow cytometry (reference value: 8%); format: functional
[23] = test system: MCF-10A; assay: Induction of cell cycle arrest in human MCF10A cells assessed as accumulation at S phase at 5 uM incubated for 4 days by propidium iodide staining based flow cytometry (reference value: 38%); details: 96 h
[24] = test system: ZR-75-1; assay: Suppression of MUC1 protein expression in tumor area of human ZR-75-1 xenografted in nu/nu mouse at 50 mg/kg/day, ip for 21 days; format: functional, organism-based
[25] = test system: ZR-75-1; assay: Antitumor activity against human ZR-75-1 xenografted in nu/nu mouse assessed as reduction in tumor growth at 50 mg/kg/day, ip for 7 days measured on day 7; format: functional, organism-based
[26] = test system: MCF-10A; assay: Induction of cell cycle arrest in human MCF10A cells assessed as accumulation at S phase at 5 uM incubated for 3 days by propidium iodide staining based flow cytometry (reference value: 38%); details: 72 h
[27] = test system: ZR-75-1; assay: Induction of necrosis in human ZR-75-1 cells at 5 uM incubated for 4 days by propidium iodide staining based flow cytometry (reference value: 8%); format: functional
[28] = test system: ZR-75-1; assay: Induction of cell cycle arrest in human ZR-75-1 cells assessed as accumulation at S phase at 5 uM incubated for 3 days by propidium iodide staining based flow cytometry (reference value: 29%); format: functional
[29] = Drug uptake in human ZR-75-1 cells assessed as mean fluorescence intensity at 5 uM using FITC-tagged peptide incubated for 6 hrs by flow cytometry (reference value: 24); format: ADME, cell-based; details: zr-75-1, 6 h
[30] = test system: ZR-75-1; assay: Induction of cell cycle arrest in human ZR-75-1 cells assessed as accumulation at G2 phase at 5 uM incubated for 4 days by propidium iodide staining based flow cytometry (reference value: 7%); format: functional
[31] = test system: ZR-75-1; assay: Growth inhibition in human ZR-75-1 cells assessed as reduction in cell number up to 96 hrs in presence of control siRNA; format: functional, cell-based
[32] = test system: MCF-10A; assay: Growth inhibition in human MCF10A cells assessed as reduction in cell number up to 96 hrs; format: cell-based
[33] = test system: ZR-75-1; assay: Growth inhibition of human ZR-75-1 cells assessed as reduction in cell number incubated up to 2 days by MTS assay; format: functional, cell-based

Mucin-1 (Homo sapiens), sequence (P15941 24-1097 limits assumed): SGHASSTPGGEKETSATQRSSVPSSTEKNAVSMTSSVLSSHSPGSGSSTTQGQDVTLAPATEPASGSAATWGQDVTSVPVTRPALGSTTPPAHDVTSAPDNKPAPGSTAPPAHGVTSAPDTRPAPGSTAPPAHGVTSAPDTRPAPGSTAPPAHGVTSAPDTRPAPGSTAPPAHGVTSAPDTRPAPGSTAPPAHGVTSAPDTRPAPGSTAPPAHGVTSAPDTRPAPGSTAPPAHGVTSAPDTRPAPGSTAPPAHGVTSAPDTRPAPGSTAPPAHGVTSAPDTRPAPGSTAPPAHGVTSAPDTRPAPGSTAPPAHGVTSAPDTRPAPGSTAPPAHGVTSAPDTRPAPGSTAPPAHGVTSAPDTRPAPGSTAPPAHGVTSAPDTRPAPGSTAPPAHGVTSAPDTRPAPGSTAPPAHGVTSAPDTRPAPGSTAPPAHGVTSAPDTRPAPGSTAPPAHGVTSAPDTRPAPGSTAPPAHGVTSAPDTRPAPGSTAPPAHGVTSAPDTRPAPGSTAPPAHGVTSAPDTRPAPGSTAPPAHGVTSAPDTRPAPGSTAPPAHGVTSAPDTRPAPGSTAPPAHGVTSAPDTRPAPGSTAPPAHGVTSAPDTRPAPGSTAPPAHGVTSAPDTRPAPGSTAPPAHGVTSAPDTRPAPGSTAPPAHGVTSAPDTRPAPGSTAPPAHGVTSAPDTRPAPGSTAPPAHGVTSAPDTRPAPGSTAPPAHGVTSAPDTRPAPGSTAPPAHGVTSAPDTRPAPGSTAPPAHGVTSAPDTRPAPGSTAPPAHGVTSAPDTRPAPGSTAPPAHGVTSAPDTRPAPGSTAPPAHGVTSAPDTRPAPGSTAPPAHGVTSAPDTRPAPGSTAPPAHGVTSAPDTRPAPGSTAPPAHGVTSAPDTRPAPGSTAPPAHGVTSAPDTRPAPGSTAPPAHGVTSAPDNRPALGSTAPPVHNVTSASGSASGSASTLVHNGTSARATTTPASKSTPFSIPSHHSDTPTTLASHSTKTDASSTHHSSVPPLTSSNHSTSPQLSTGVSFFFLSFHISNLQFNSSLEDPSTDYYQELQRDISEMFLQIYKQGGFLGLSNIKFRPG
Mucin-1 (Homo sapiens), sequence (P15941 1098-1255 limits assumed): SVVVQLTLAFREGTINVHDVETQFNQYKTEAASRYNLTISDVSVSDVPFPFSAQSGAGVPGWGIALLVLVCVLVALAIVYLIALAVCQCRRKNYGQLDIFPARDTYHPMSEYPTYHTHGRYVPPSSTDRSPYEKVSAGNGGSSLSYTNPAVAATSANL

Question: Which Activity [1] does the source give for CC[C@H](C)[C@H](NC(=O)[C@H](CC(=O)O)NC(=O)[C@H](CC(C)C)NC(=O)[C@H](CCC(N)=O)NC(=O)CNC(=O)[C@H](Cc1ccc(O)cc1)NC(=O)[C@H](CC(N)=O)NC(=O)[C@H](CCCCN)NC(=O)[C@H](CCCNC(=N)N)NC(=O)[C@H](CCCNC(=N)N)NC(=O)[C@H](CS)NC(=O)[C@H](CCC(N)=O)NC(=O)[C@H](CS)NC(=O)[C@H](CCCNC(=N)N)NC(=O)[C@@H](CCCNC(=N)N)NC(=O)[C@@H](CCCNC(=N)N)NC(=O)[C@@H](CCCNC(=N)N)NC(=O)[C@@H](CCCNC(=N)N)NC(=O)[C@@H](CCCNC(=N)N)NC(=O)[C@@H](CCCNC(=N)N)NC(=O)[C@@H](CCCNC(=N)N)NC(=O)[C@H](N)CCCNC(=N)N)C(=O)N[C@@H](Cc1ccccc1)C(=O)N1CCC[C@H]1C(=O)O here?
Answer: inactive

Question: And the Activity [2]?
Answer: 2%

Question: What about the Flu intensity [3] of the same compound?
Answer: 615

Question: And the “growth inhibition (GI)” value [4]?
Answer: inactive

Question: What about the Activity [5] of the same compound?
Answer: 0%

Question: And the Activity [6]?
Answer: 44%

Question: And the inhibition [7]?
Answer: Active

Question: What about the Activity [8] of the same compound?
Answer: 54%

Question: And the inhibition [9]?
Answer: Active

Question: What about the inhibition [10] of the same compound?
Answer: Active

Question: What about the Activity [11] of the same compound?
Answer: Active

Question: What about the Activity [12] of the same compound?
Answer: Active

Question: What about the Activity [13] of the same compound?
Answer: Non-Toxic

Question: What about the Activity [14] of the same compound?
Answer: 37%

Question: What about the inhibition [15] of the same compound?
Answer: Active

Question: What about the “growth inhibition (GI)” value [16] of the same compound?
Answer: Non-Toxic

Question: What about the Flu intensity [17] of the same compound?
Answer: 145

Question: And the Activity [18]?
Answer: 24%

Question: What about the Activity [19] of the same compound?
Answer: 46%

Question: And the Activity [20]?
Answer: 49%

Question: What about the Activity [21] of the same compound?
Answer: 29%

Question: And the Activity [22]?
Answer: 34%

Question: And the Activity [23]?
Answer: 42%

Question: And the Activity [24]?
Answer: Active

Question: What about the Activity [25] of the same compound?
Answer: Active

Question: What about the Activity [26] of the same compound?
Answer: 42%

Question: And the Activity [27]?
Answer: 74%

Question: What about the Activity [28] of the same compound?
Answer: 69%

Question: What about the Flu intensity [29] of the same compound?
Answer: 252

Question: What about the Activity [30] of the same compound?
Answer: 14%

Question: And the “growth inhibition (GI)” value [31]?
Answer: Active

Question: What about the “growth inhibition (GI)” value [32] of the same compound?
Answer: Non-Toxic

Question: With O=c1c(O)c(-c2ccc(O)cc2)oc2cc(O)cc(O)c12 as the compound, how does the “growth inhibition (GI)” value [33] read?
Answer: Active
